# Assay results published in patent EP0821957A2 (priority 1996, dated 1998).
# Key:
# [1] = molecular target: muscarinic cholinergic receptors; assay: ^3H-oxotremorine-M binding inhibition; conditions: inhibition of binding of ^3H-oxotremorine-M; read-out: inhibition costant (Ki)
# m4 receptors = m4 receptors (Homo sapiens, UniProt P08173); type: cell-based; conditions: CHO m4 cells treated with pertussis toxin
# m4 receptors, sequence (P08173 whole entry): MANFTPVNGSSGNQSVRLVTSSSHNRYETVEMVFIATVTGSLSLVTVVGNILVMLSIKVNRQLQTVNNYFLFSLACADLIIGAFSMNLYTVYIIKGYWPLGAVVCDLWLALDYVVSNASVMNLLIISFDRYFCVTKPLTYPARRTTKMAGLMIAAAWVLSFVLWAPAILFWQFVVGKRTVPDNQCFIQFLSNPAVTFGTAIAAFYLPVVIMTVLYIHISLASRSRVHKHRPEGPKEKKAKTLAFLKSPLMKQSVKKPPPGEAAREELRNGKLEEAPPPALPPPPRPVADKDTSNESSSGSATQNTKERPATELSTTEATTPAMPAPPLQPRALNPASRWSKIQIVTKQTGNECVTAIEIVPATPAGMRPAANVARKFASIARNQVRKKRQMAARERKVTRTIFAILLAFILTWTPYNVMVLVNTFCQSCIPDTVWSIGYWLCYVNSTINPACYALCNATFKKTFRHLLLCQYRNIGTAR
smiles,measurement,setting,value
"CCCCCCOc1nsnc1C1=CCCN(C)C1 [Xanomeline, 3-(4-hexyloxy-1,2,5-thiadiazol-3-yl)-1,2,5,6-tetrahydro-1-methylpyridine]",Ki,[1],2 nM
same,formation of cAMP,m4 receptors,efficaciously and potently stimulated the formation of cAMP
